Test results: the NIST ThermoML archive (doi:10.1016/j.fluid.2012.08.002)
Numbers after ± are expanded uncertainties.

Settings: 101.33 kPa, Liquid; for speed of sound: Sing-around technique in a fixed-path interferometer; for mass density: Vibrating tube method

| SMILES | speed of sound (288.15 K) [m/s] | mass density (288.15 K) [kg/m3] | speed of sound (293.15 K) [m/s] | mass density (293.15 K) [kg/m3] | speed of sound (298.15 K) [m/s] | mass density (298.15 K) [kg/m3] | speed of sound (303.15 K) [m/s] | mass density (303.15 K) [kg/m3] | speed of sound (308.15 K) [m/s] | mass density (308.15 K) [kg/m3] | speed of sound (313.15 K) [m/s] | mass density (313.15 K) [kg/m3] | speed of sound (318.15 K) [m/s] | mass density (318.15 K) [kg/m3] |
| --- | --- | --- | --- | --- | --- | --- | --- | --- | --- | --- | --- | --- | --- | --- |
| COCCO [2-methoxyethan-1-ol] | 1376.5 ± 0.85 | 969.374 ± 0.091 | 1359 ± 0.85 | 964.809 ± 0.092 | 1341.7 ± 0.84 | 960.222 ± 0.094 | 1324.5 ± 0.84 | 955.615 ± 0.095 | 1307.1 ± 0.83 | 950.971 ± 0.097 | 1290 ± 0.83 | 946.306 ± 0.098 | 1272.8 ± 0.82 | 941.609 ± 0.099 |
| CCCCCCn1cc[n+](C)c1.F[B-](F)(F)F [1-hexyl-3-methylimidazolium tetrafluoroborate] | 1548.8 ± 1.2 | 1155.32 ± 0.36 | 1535 ± 1.2 | 1151.79 ± 0.35 | 1521.9 ± 1.2 | 1148.26 ± 0.35 | 1509.2 ± 1.2 | 1144.74 ± 0.35 | 1497 ± 1.2 | 1141.23 ± 0.34 | 1485 ± 1.2 | 1137.83 ± 0.34 | 1473.3 ± 1.2 | 1134.43 ± 0.34 |
| CCCCCCn1cc[n+](C)c1.F[P-](F)(F)(F)(F)F [1-hexyl-3-methylimidazolium hexafluorophosphate] | 1449.1 ± 1.2 | 1302.74 ± 0.49 | 1434.1 ± 1.2 | 1298.71 ± 0.48 | 1420.3 ± 1.2 | 1294.69 ± 0.48 | 1407.3 ± 1.2 | 1290.66 ± 0.48 | 1394.9 ± 1.2 | 1286.64 ± 0.47 | 1383 ± 1.2 | 1282.63 ± 0.47 | 1371.5 ± 1.2 | 1278.72 ± 0.47 |
| CCCCCCn1cc[n+](C)c1.[Br-] [3-hexyl-1-methyl-1H-imidazolium bromide] | 1639.8 ± 1.3 | 1231.03 ± 0.42 | 1610.6 ± 1.3 | 1227.49 ± 0.42 | 1587.5 ± 1.3 | 1223.82 ± 0.42 | 1568.1 ± 1.3 | 1220.47 ± 0.41 | 1551.2 ± 1.3 | 1216.79 ± 0.41 | 1533.5 ± 1.2 | 1213.28 ± 0.41 | 1517.8 ± 1.2 | 1209.94 ± 0.4 |
